The results in this text go back to patent publication US4620871A (priority 1980, dated 1986).

Molecules are shown by their SMILES.

The subject of one assay is Tobacco callus. As to the kind of experiment: Growth of tobacco callus vs kinetin (Example 14). It counts as cell-based. To be noted: 2 ppm active agent; for Dry weight of the callus / Speed of growth: kinetin 1 ppm; for activity at 2 ppm: Nicotiana tabacum, 504 h, kinetin 1 ppm = 100, read-out: Speed of growth, Index %. The method, then: An untreated culture medium served as control. Tobacco callus was grown on the treated and untreated culture media (incubation period: 3 weeks), and the daily growth, the increase in cell number and the frequency of mitosis were measured according to the method of Skoog.
The test described in Example 13 was repeated so that a culture medium containing 1 ppm of kinetin was used as control, and the compositions according to the invention were applied in amounts corresponding to 2 ppm of active agent.

The test system of a further assay is Pinto beans. The assay is described as follows: Preservation of chlorophyll in Pinto beans (Example 17). To be noted: zeatin 20 ppm, kinetin/benzyladenine 30 ppm, others 200 ppm; for Extinction: 665 mμ, 200 mg fresh weight, 2 weeks. It is filed as in vivo. The method, then:
Endogeneous and synthetic cytokinins were applied as comparative substances. Solutions with varying concentrations, but always more dilute than 10^-4 moles, were applied in the tests.
The tests were performed on Pinto beans. The plants were treated with an endogenous cytokinin (zeatine), synthetic cytokinins (kinetin, benzyladenine) or cytokinin-like compounds, respectively, and the chlorophyll content of the leaves was determined 2 weeks after the treatment by measuring the extinction of the extract of the leaves at 665 mμ.

Assay [1] relates to leaves of Pinto bean. As to the kind of experiment: Protein synthesis, glycine-2-14C incorporation in Pinto bean leaves (Example 19). The conditions noted are these: 18 hours, zeatin 20 ppm, kinetin/benzyladenine 30 ppm, others 200 ppm; for Radioactivity of the TCA-insoluble fraction: control 3.17. The method, then: The tests were performed on leaves of Pinto bean. The leaf segments were treated with an endogeneous cytokinin (zeatin), synthetic cytokinins (kinetin, benzyladenine) or with the compositions according to the invention, respectively, by floating the leaf segments on the solution of the test substance for 18 hours. Thereafter the leaf segments were exposed to a labelled amino acid (glycine-2-^14 C) for 3 hours, and the incorporation of the amino acid was determined by radiometry.

Another assay deals with leaves of Pinto beans. The assay is described as follows: Stimulation of carbon dioxide fixation, Pinto beans (Example 21). The conditions noted are these: for Radioactivity A: A = in the light, control 2.14; for Radioactivity A / Radioactivity B / Radioactivity C / Stimulation: zeatin 20, kinetin/benzyladenine 30, others 200 ppm; for Radioactivity B: B = in the dark, control 0.18; for Radioactivity C: C = photosynthetic, control 2.32. The method, then: The tests were performed on leaves of Pinto beans. The leaf segments were treated with an endogeneous cytokinin (zeatin), synthetic cytokinins (kinetin, benzyladenine) or with the compositions according to the invention, respectively, by floating the leaf segments on the solution of the test substance for 18 hours, thereafter the leaf segments were exposed to labelled carbon dioxide (activity: 100 μCi/5000 ml of ^14 CO2) for 0.5 hours.

For assay [2], the system named is leaves of Pinto bean. As to the kind of experiment: Stimulation of photolytic activity, HTO, Pinto bean (Example 23). To be noted: 18 hours, zeatin 20, kinetin/benzyladenine 30, others 200 ppm; for Photolytic activity: control 7.64. The method, then: The stimulating effects of an endogeneous cytokinin (zeatin), synthetic cytokinins (kinetin, benzyladenine) and the cytokinin-like regulators according to the invention exerted on the photolytic activity connected to the decomposition of HTO were examined on leaves of Pinto bean. The leaf discs were floated for 18 hours on solutions of the substances under examination, and then exposed to a radioactivity of 200 μCi/100 ml for one hour to effect photolysis of HTO.

The subject of a further assay is Pinto bean. The assay is described as follows: Stimulation of membrane activity (nitrate uptake), Pinto bean (Example 25). It is filed as in vivo. To be noted: zeatin 20, kinetin/benzyladenine 30, others 200 ppm; for Protein nitrogen / Total nitrogen: 2 weeks; for Protein nitrogen: control 2.4; for Total nitrogen: control 3.8; for Protein nitrogen content in % of the total nitrogen content: control 63. The method, then:
The tests were performed on Pinto bean. The plants were treated with solutions of an endogeneous cytokinin (zeatin), synthetic cytokinins and membraneactive regulators according to the invention, respectively, and the leaves of the plants were analyzed 2 weeks after the treatment.

The next assay deals with Pannonia vine variety. The assay is described as follows: Berry yield and sugar content of vine, Pannonia (Example 33). The conditions noted are these: for Berry yield: 3 x 2 kg/ha, control 216; for Sugar content: control 13.0; for Sugar yield: control 28.08. It counts as in vivo. The method, then:
(§1) Vine stands were sprayed with the compositions according to the invention to examine their effects exerted on the berry yield and sugar content. The compositions, diluted with water, were sprayed three times onto the plants. The first treatment was performed prior to flowering, the second one three weeks later, and the third one six weeks after the first one. The dose applied was 2 kg/ha in each of the treatments.
(§2) Comparative tests were also performed with commonly used growth regulating compositions, i.e. CCC (chlorocholine chloride), Ethrel (or Etefon; 2-chloroethylphosphonic acid) and Nevirol (N-phenyl-phthalaiminic acid). The results were compared to those observed with the untreated controls.
(§3) Two vine varieties, Pannonia and Egri leanyka, were involved in the tests.

Assay [3] has as its system Egri leanyka vine variety. The assay is described as follows: Berry yield and sugar content of vine, Egri leanyka (Example 33). It counts as in vivo. The conditions noted are these: for Berry yield: 3 x 2 kg/ha, control 151.15; for Sugar content: control 16.7; for Sugar yield: control 18.93. The method, then:
as §1, §2, §3

Assay [4] deals with callus isolated from Datura innoxia Mill. roots. The assay is described as follows: Growth of callus isolated from Datura innoxia Mill. roots (Example 15). The conditions noted are these: with kinetin (2 ppm). It counts as cell-based.
The next assay concerns Soybean. As to the kind of experiment: Total and protein nitrogen content of soybean (Example 39). It counts as in vivo. To be noted: for Protein nitrogen content: control 1.9; for Total nitrogen content: control 2.6; for Protein nitrogen content, increase / Total nitrogen content, increase: in vivo. From the text:
The effects of 1,4-dihydroxyphthalazine and salts thereof exerted on the total nitrogen content and protein nitrogen content of soybean were examined as described in Example 27. The plants were sprayed with the compositions according to the invention at the beginning of the flowering of the apical cluster.

For `CCCn1cnc2ccccc21` [N--(n-Propyl)-benzimidazolium chloride], in the assay with Tobacco callus, the “Dry weight of the callus” value is recorded as 194.09 mg, the Speed of growth was 116.89 and the activity at 2 ppm amounted to 119%.
For `c1ccc(CNc2ncnc3[nH]cnc23)cc1` [Benzyladenine, benzyladenine], in the assay on Pinto beans, the Extinction is given as 1.229 and the Promotion is given as 83.1%. In addition, in the assay on leaves of Pinto bean [1], the Stimulation is 87.0% and the “Radioactivity of the TCA-insoluble fraction” value is 5.92 1000 dpm/200 mg fresh weight. Besides, in the assay on leaves of Pinto beans, the “Radioactivity A” value was 4.87 dpm/200 mg fresh weight, the “Radioactivity B” value is on record as 0.41 dpm/200 mg fresh weight, the “Radioactivity C” value amounted to 5.28 dpm/200 mg fresh weight and the Stimulation came out at 128.0%. Besides, in the assay on leaves of Pinto bean [2], the Stimulation worked out at 125% and the Photolytic activity is on record as 17.21 dpm/mg of glucose. Moreover, in the assay on Pinto bean, the Protein nitrogen is 2.8 % of dry weight; the Total nitrogen was 3.8 % of dry weight; the “Protein nitrogen, stimulation” value is recorded as 16.6%; the “Protein nitrogen content in % of the total nitrogen content” value (from here on “Protein nitrogen content in %”) is given as 73%.
Consider `N=C(N)N.Oc1nnc(O)c2ccccc12` [1,4-Dihydroxy-phthalazine monoguanidine salt], for which, in the assay with leaves of Pinto beans, the “Radioactivity A” value is given as 3.75 dpm/200 mg fresh weight, the “Radioactivity B” value was 0.28 dpm/200 mg fresh weight, the “Radioactivity C” value was 3.47 dpm/200 mg fresh weight and the Stimulation stood at 50.7%.
Take `O=P(O)(O)CCCl` [Ethrel, 2-chloroethylphosphonic acid]: in the assay with Pannonia vine variety, the “Sugar content, increase” value turned out to be 7.5%; the Berry yield is 194 q/ha; the Sugar content was 14.0%; the Sugar yield was 27.2 q/ha. Moreover, in [3], the “Berry yield, increase” value turned out to be 8.9%; the “Sugar yield, increase” value is 2.3%; the Berry yield came out at 164.61 q/ha; the Sugar content was 15.7%. The compound further came in with a Sugar yield in [3] of 19.38 q/ha.
Turning to `c1coc(CNc2ncnc3[nH]cnc23)c1` [Kinetin], in the assay on Tobacco callus, the “Dry weight of the callus” value is on record as 174.11 mg, the Speed of growth was 97.17 and the activity at 2 ppm is 100%. In [4], the Dry substance stood at 3.52%; the “Dry weight of the callus” value was determined as 175.06 mg; the “Fresh weight of the callus” value turned out to be 4.9694 g; the “Growth, dry weight” value was found to be 15.56. In addition, in assay [4], the “Growth, fresh weight” value came out at 15.56 and the Speed of growth came out at 98.28 mg/day. In the assay with Pinto beans, this compound displayed an Extinction of 1.120 and a Promotion of 66.0%. Besides, in the assay with leaves of Pinto bean [1], the Stimulation amounted to 69.4% and the “Radioactivity of the TCA-insoluble fraction” value is 5.36 1000 dpm/200 mg fresh weight. In addition, in the assay on leaves of Pinto beans, the “Radioactivity A” value was 4.15 dpm/200 mg fresh weight, the “Radioactivity B” value worked out at 0.37 dpm/200 mg fresh weight, the “Radioactivity C” value turned out to be 4.52 dpm/200 mg fresh weight and the Stimulation is recorded as 95.2%. In addition, in the assay on leaves of Pinto bean [2], the Stimulation was 82% and the Photolytic activity is reported as 13.96 dpm/mg of glucose. Also, in the assay on Pinto bean, the Protein nitrogen is 2.8 % of dry weight; the Total nitrogen is listed as 3.8 % of dry weight; the “Protein nitrogen, stimulation” value is given as 16.6%; the “Protein nitrogen content in %” value is on record as 73%.
For the compound `C[N+](C)(C)CCCl.[Cl-]` [CCC, 2-chloroethyltrimethyl-ammonium chloride], in the assay with Pannonia vine variety, the “Sugar content, increase” value was determined as 23.0%; the Berry yield was found to be 175 q/ha; the Sugar content amounted to 16.0%; the Sugar yield was 28.0 q/ha. Moreover, in assay [3], the Berry yield is given as 144.61 q/ha, the Sugar content amounted to 17.0% and the Sugar yield worked out at 18.44 q/ha.
Consider `O=C(O)c1ccccc1C(=O)Nc1ccccc1` [Nevirol, N-phenyl-phthalaiminic acid], for which, in the assay with Pannonia vine variety, the “Sugar content, increase” value stood at 18.4%; the “Sugar yield, increase” value came to 30%; the Berry yield was 238 q/ha; the Sugar content was 15.4%. This compound displayed a Sugar yield with Pannonia vine variety of 36.52 q/ha. Further, in assay [3], the “Berry yield, increase” value is reported as 11.9%; the “Sugar yield, increase” value is listed as 9.9%; the Berry yield is given as 169.22 q/ha; the Sugar content was found to be 16.4%. This compound also had a Sugar yield in [3] of 20.81 q/ha.
Take `NN.Oc1nnc(O)c2ccccc12` [1,4-Dihydroxyphthalazine hydrazine salt]: in the assay on Soybean, the Protein nitrogen content was 3.1 % of dry substance; the Total nitrogen content was 3.7 % of dry substance; the “Protein nitrogen content, increase” value is reported as 63.2%; the “Total nitrogen content, increase” value was determined as 42.4%.
For the compound `NN.NN.Oc1nnc(O)c2ccccc12` [1,4-Dihydroxyphthalazine dihydrazine salt], in the assay with Soybean, the Protein nitrogen content is 3.6 % of dry substance; the Total nitrogen content is recorded as 3.9 % of dry substance; the “Protein nitrogen content, increase” value is on record as 89.5%; the “Total nitrogen content, increase” value amounted to 50.0%.
In the assay with Pinto beans, `C/C(=C\CNc1ncnc2[nH]cnc12)CO` [Zeatin] gave an Extinction of 1.283 and a Promotion of 91.3%. Moreover, the “Radioactivity of the TCA-insoluble fraction” value with leaves of Pinto bean [1] is reported as 6.18 1000 dpm/200 mg fresh weight. In the assay with leaves of Pinto bean [1] (read-out: Stimulation), the activation at 20 ppm is 95.1%. In addition, in the assay on leaves of Pinto beans, the “stimulation of CO2 fixation, comparison in words” value is on record as “the most potent stimulating agent”; the “Radioactivity A” value stood at 5.12 dpm/200 mg fresh weight; the “Radioactivity B” value was determined as 0.46 dpm/200 mg fresh weight; the “Radioactivity C” value amounted to 5.58 dpm/200 mg fresh weight. Further, the Stimulation in the assay on leaves of Pinto beans was 140.8%. Further, in the assay on leaves of Pinto bean [2], the Stimulation is recorded as 108% and the Photolytic activity was 15.94 dpm/mg of glucose. In the assay with Pinto bean, the Protein nitrogen was 2.8 % of dry weight; the Total nitrogen is on record as 3.8 % of dry weight; the “Protein nitrogen, stimulation” value is listed as 16.6%; the “Protein nitrogen content in %” value is listed as 73%.
